Experimental data published in patent US20130079402A1, “Use of at Least One Dialkyl Thiosulfonate or Thiosulfinate for Reducing the Number of Apicomplexa in an Animal” (Pancosma S.A., priority 2010, published 2013).
Read-outs that look alike come from different tables or passages of the source.

Tested on: sporozoites of Eimeria tenella
Test: Viability of Eimeria tenella sporozoites after 24 hours incubation with test compound (trypan blue exclusion)
Type: cell-based
Settings: for percentage inhibition (effectiveness): concentration of 10 ppm; for inhibition at 100 ppm: Eimeria tenella, read-out: percentage inhibition (inhibitory or destructive effect on the sporozoites)
Protocol: The antiparasitic properties of the following compounds were tested: • a capsicum oleoresin (Capsicum frutescens pigment) containing 6% by weight of a mixture of capsaicin and dihydrocapsaicin; • carvacrol; • cinnamaldehyde; • curcumin; • anethole; • PTS (according to the invention); • PTSO (according to the invention); and • an extract (according to the invention) called “Garlicon 40” containing […] of organosulfur compounds characteristic of garlic/onion, 6.7% by weight of PTS and 34.3% by weight of PTSO.
A first series of samples consisting of an aqueous solution containing 100 ppm of the abovementioned test compounds, and a second series of samples containing only 10 ppm of these compounds, were prepared.
Next, in order to be able to test the effect of the abovementioned compounds on Eimeria, the following was carried out. Freshly sporulated oocysts were obtained from Eimeria tenella and were stored at 4° C. in a 2.5% (weight/volume) potassium dichromate solution until use.
The oocysts were then sterilized with bleach before isolating sporozoites. The walls of the oocysts were mechanically destroyed for 5 to 7 seconds using a ball mill having balls of 0.5 mm.
The product obtained was then incubated for 45 minutes at 41° C. in a PBS buffer solution containing 0.014 mol/l of taurodeoxycholic acid and 0.25% by weight of trypsin in order to release the sporozoites.
The fluids released by the excystation were filtered and the sporozoites collected were washed three times with RPMI-1640 medium with stirring at 2100 revolutions per minute for 10 minutes at 4° C.
Solutions of 10^6 sporozoites per milliliter were then prepared, and were left to incubate with the same volume of sample of test compound for 24 hours.
The viability of the sporozoites was then measured according to the trypan blue exclusion method.
The results can be seen on the appended single figure, in which the numbers located above each column indicate the percentage inhibition by the corresponding compound and the numbers which follow the name of the compound indicate its concentration.
A measurement was also carried out with a control solution (free of test compound) called “Control” on the figure.

[1] = concentration of 100 ppm, 24 hours incubation

SMILES	percentage inhibition (effectiveness) (24 hours incubation) [%]	inhibition at 100 ppm [1] [%]	also measured
CCCS[S+]([O-])CCC (stereo not drawn) [PTS, di(n-propyl) thiosulfinate]	87		
CCCSS(=O)(=O)CCC [PTSO, di(n-propyl) thiosulfonate]	61		effectiveness at 10 ppm compared with 100 ppm (10 ppm versus 100 ppm): higher effectiveness at 10 ppm than at 100 ppm
Cc1ccc(C(C)C)cc1O [carvacrol]			inhibition at 100 ppm (24 h): ≥ 74%
O=CC=Cc1ccccc1 [cinnamaldehyde]		≥ 74	
COc1cc(/C=C/C(=O)CC(=O)/C=C/c2ccc(O)c(OC)c2)ccc1O [curcumin]		≥ 74	
